Measurements published in PubChem BioAssay (NCI).
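Following 48 hours of exposure in 96-well plates, responses at five concentrations were used to interpolate endpoints linearly. GI50: concentration for 50% inhibition of growth. TGI: total growth inhibition.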

Experiments:
Assay in all cases: growth of human tumour cells (NCI), 48 h; in the data active means GI50 below about 0.43 µM; inactive means the rest
IGROV1 ovarian = tested on: IGROV1 ovarian
OVCAR-8 ovarian = tested on: OVCAR-8 ovarian
786-0 renal = tested on: 786-0 renal
M14 melanoma = tested on: M14 melanoma
OVCAR-3 ovarian = tested on: OVCAR-3 ovarian
OVCAR-4 ovarian = tested on: OVCAR-4 ovarian
DU-145 prostate = tested on: DU-145 prostate
COLO 205 colon = tested on: COLO 205 colon
EKVX NSCLC = tested on: EKVX NSCLC
MALME-3M melanoma = tested on: MALME-3M melanoma
SNB-19 CNS = tested on: SNB-19 CNS
CAKI-1 renal = tested on: CAKI-1 renal
BT-549 breast = tested on: BT-549 breast
HOP-92 NSCLC = tested on: HOP-92 NSCLC
NCI-H460 lung = tested on: NCI-H460 lung
SK-MEL-28 melanoma = tested on: SK-MEL-28 melanoma
HCT-116 colon = tested on: HCT-116 colon
MDA-MB-231 breast = tested on: MDA-MB-231 breast
NCI-H226 lung = tested on: NCI-H226 lung
SF-539 CNS = tested on: SF-539 CNS
UACC-62 melanoma = tested on: UACC-62 melanoma
A498 renal = tested on: A498 renal
UO-31 renal = tested on: UO-31 renal
SW-620 colon = tested on: SW-620 colon
SK-MEL-5 melanoma = tested on: SK-MEL-5 melanoma
SF-295 CNS = tested on: SF-295 CNS
K-562 leukemia = tested on: K-562 leukemia
ACHN renal = tested on: ACHN renal
CCRF-CEM leukemia = tested on: CCRF-CEM leukemia
HCC-2998 colon = tested on: HCC-2998 colon
OVCAR-5 ovarian = tested on: OVCAR-5 ovarian
PC-3 prostate = tested on: PC-3 prostate
MOLT-4 leukemia = tested on: MOLT-4 leukemia
MDA-MB-468 breast = tested on: MDA-MB-468 breast
A549 NSCLC = tested on: A549 NSCLC
SR leukemia = tested on: SR leukemia
LOX IMVI melanoma = tested on: LOX IMVI melanoma
HS 578T breast = tested on: HS 578T breast
SK-MEL-2 melanoma = tested on: SK-MEL-2 melanoma
KM12 colon = tested on: KM12 colon
T-47D breast = tested on: T-47D breast
HOP-62 NSCLC = tested on: HOP-62 NSCLC
U251 CNS = tested on: U251 CNS
RXF 393 renal = tested on: RXF 393 renal
HCT-15 colon = tested on: HCT-15 colon
RPMI-8226 leukemia = tested on: RPMI-8226 leukemia
SF-268 CNS = tested on: SF-268 CNS
HL-60(TB) leukemia = tested on: HL-60(TB) leukemia
SN12C renal = tested on: SN12C renal
UACC-257 melanoma = tested on: UACC-257 melanoma
TK-10 renal = tested on: TK-10 renal
SK-OV-3 ovarian = tested on: SK-OV-3 ovarian
NCI-H522 lung = tested on: NCI-H522 lung
NCI-H23 lung = tested on: NCI-H23 lung
MCF7 breast = tested on: MCF7 breast
MDA-MB-435 = tested on: MDA-MB-435
HT29 colon = tested on: HT29 colon

O=C1CCC(N2C(=O)c3cccc(NCCOCCOCCOCCC(=O)NCCCC(=O)NC(c4ccc5c(c4)OCO5)c4cc(Cl)c5cccnc5c4O)c3C2=O)C(=O)C1 (centres undefined)
30.8 µM: TGI (HCC-2998 colon)
22.2 µM: TGI (LOX IMVI melanoma)
42.3 µM: TGI (BT-549 breast)
84.3 µM: TGI (OVCAR-4 ovarian)
41.5 µM: TGI (NCI-H522 lung)
75.1 µM: TGI (OVCAR-8 ovarian)
61 µM: TGI (SK-MEL-28 melanoma)
23.1 µM: TGI (HL-60(TB) leukemia)
90.8 µM: TGI (MALME-3M melanoma)
72.2 µM: TGI (NCI-H226 lung)
42.9 µM: TGI (NCI-H460 lung)
> 99 µM: TGI (IGROV1 ovarian) | TGI (786-0 renal) | TGI (M14 melanoma) | TGI (OVCAR-3 ovarian) | TGI (DU-145 prostate) | TGI (COLO 205 colon) | TGI (EKVX NSCLC) | TGI (SNB-19 CNS) | TGI (CAKI-1 renal) | TGI (HCT-116 colon) | TGI (A498 renal) | TGI (UO-31 renal) | TGI (SW-620 colon) | TGI (SF-295 CNS) | TGI (K-562 leukemia) | TGI (ACHN renal) | TGI (CCRF-CEM leukemia) | TGI (OVCAR-5 ovarian) | TGI (PC-3 prostate) | TGI (MOLT-4 leukemia) | TGI (A549 NSCLC) | TGI (SR leukemia) | TGI (HS 578T breast) | TGI (KM12 colon) | TGI (T-47D breast) | TGI (HOP-62 NSCLC) | TGI (U251 CNS) | TGI (HCT-15 colon) | TGI (RPMI-8226 leukemia) | TGI (SF-268 CNS) | TGI (SN12C renal) | TGI (TK-10 renal) | TGI (SK-OV-3 ovarian) | TGI (NCI-H23 lung) | TGI (MCF7 breast) | TGI (MDA-MB-435) | TGI (HT29 colon)
34.6 µM: TGI (SK-MEL-2 melanoma)
inactive: GI50 (IGROV1 ovarian) 3.77 µM | GI50 (OVCAR-8 ovarian) 11.9 µM | GI50 (786-0 renal) 29.6 µM | GI50 (M14 melanoma) 14 µM | GI50 (OVCAR-3 ovarian) 3.33 µM | GI50 (OVCAR-4 ovarian) 14.4 µM | GI50 (DU-145 prostate) 37.5 µM | GI50 (COLO 205 colon) 5.04 µM | GI50 (EKVX NSCLC) 17.2 µM | GI50 (MALME-3M melanoma) 11.8 µM | GI50 (SNB-19 CNS) 6.32 µM | GI50 (CAKI-1 renal) 28.3 µM | GI50 (BT-549 breast) 8.58 µM | GI50 (HOP-92 NSCLC) 4.29 µM | GI50 (NCI-H460 lung) 4.81 µM | GI50 (SK-MEL-28 melanoma) 5.95 µM | GI50 (HCT-116 colon) 22.2 µM | GI50 (MDA-MB-231 breast) 4.32 µM | GI50 (NCI-H226 lung) 14.5 µM | GI50 (SF-539 CNS) 4.21 µM | GI50 (UACC-62 melanoma) 3.76 µM | GI50 (A498 renal) > 99 µM | GI50 (UO-31 renal) 33.6 µM | GI50 (SW-620 colon) 12.6 µM | GI50 (SK-MEL-5 melanoma) 14 µM | GI50 (SF-295 CNS) 25.4 µM | GI50 (K-562 leukemia) 5.3 µM | GI50 (ACHN renal) 52.5 µM | GI50 (CCRF-CEM leukemia) 3.34 µM | GI50 (HCC-2998 colon) 6.03 µM | GI50 (OVCAR-5 ovarian) 19.5 µM | GI50 (PC-3 prostate) 7.83 µM | GI50 (MOLT-4 leukemia) 4.8 µM | GI50 (MDA-MB-468 breast) 2.56 µM | GI50 (A549 NSCLC) 41.5 µM | GI50 (SR leukemia) 5.26 µM | GI50 (LOX IMVI melanoma) 4.29 µM | GI50 (HS 578T breast) 8.43 µM | GI50 (SK-MEL-2 melanoma) 4.89 µM | GI50 (KM12 colon) 4.5 µM | GI50 (T-47D breast) 5.06 µM | GI50 (HOP-62 NSCLC) 7.19 µM | GI50 (U251 CNS) 6.8 µM | GI50 (RXF 393 renal) 8.56 µM | GI50 (HCT-15 colon) 37.4 µM | GI50 (RPMI-8226 leukemia) 7.12 µM | GI50 (SF-268 CNS) 4.38 µM | GI50 (HL-60(TB) leukemia) 2.41 µM | GI50 (SN12C renal) 5.42 µM | GI50 (UACC-257 melanoma) 8.95 µM | GI50 (TK-10 renal) 62.1 µM | GI50 (SK-OV-3 ovarian) 14.6 µM | GI50 (NCI-H522 lung) 4.39 µM | GI50 (NCI-H23 lung) 12.7 µM | GI50 (MCF7 breast) 3.69 µM | GI50 (MDA-MB-435) 5.8 µM | GI50 (HT29 colon) 26.4 µM
52.3 µM: TGI (HOP-92 NSCLC)
85.7 µM: TGI (UACC-257 melanoma)
29.5 µM: TGI (MDA-MB-231 breast)
26.6 µM: TGI (SF-539 CNS)
33.3 µM: TGI (RXF 393 renal)
7.77 µM: TGI (MDA-MB-468 breast)
22.7 µM: TGI (UACC-62 melanoma)
43.8 µM: TGI (SK-MEL-5 melanoma)
